Results from patent US20100035941A1, “METHODS FOR INCREASING BLOOD FLOW AND/OR PROMOTING TISSUE REGENERATION” (priority 2006, published 2010).
Where “and” joins values, the source holds several entries; their conditions need not be identical. Equal values may be shown once. Read-outs that look alike come from different tables or passages of the source.

What was measured:
[1] = system: CFU-GM, BFU-E and CFU-GEMM progenitor cells; conditions: all five human donors; s.c. 80 μg/kg
Method: (§1) All progenitor cell results are based on the scoring of 3 culture plates per assay per point.
(§2) For the progenitor cell numbers and cycling status, the numbers of CFU-GM, BFU-E and CFU-GEMM in methylcellulose cultures by stimulation of the cells with 1 Unit (U)/ml recombinant human (rhu) erythropoietin, 100 U/ml rhu granulocyte-macrophage colony stimulating factor (GM-CSF), 100 U/ml rhu interleukin-3 (IL-3) and 50 ng/ml rhu steel factor (SLF=stem cell factor (SCF)). The CFU-GM were also evaluated in agar cultures stimulated with 100 U/ml rhu GM-CSF and 50 ng/ml rhu SLF. For both types of assays, colonies were scored after 14 day incubation in a humidified atmosphere with 5% CO2 and lowered (5%) O2 tension. Cell cycling status of progenitors was measured using a high specific activity tritiated thymidine kill technique as previously described (Broxmeyer, H. E., et al., Exp. Hematol. (1989) 17:455-459).

[2] = system: CFU-GM progenitor cells; conditions: donors' mean, s.c. 80 μg/kg
Method: as §1, §2

[3] = system: ischemic hind limb; test: Tissue regeneration in diabetic animal ischemic model: limb blood flow restoration, LASER Doppler; type: in vivo, male nude Hfh11 mice; conditions: diabetic mice
Method: Three to four weeks after injection of STZ the left hind limb was made ischemic by ligation of the iliac artery and removal of a 0.5-1 cm segment distal to the ligation.
One group of additional mice (n=11) was injected intramuscularly into the ischemic hindlimb with human non-diabetic-derived unmobilized CD34+ (unCD34+) peripheral blood mononuclear cells (PBMCs), two to four hours after surgery. […] Untreated mice served as controls (n=10).
Limb blood flow restoration was analyzed immediately before and after surgery and at various times thereafter in the entire limb distal to the ligation using LASER Doppler analysis.

[4] = system: progenitor cells; conditions: AMD3100 5 mg/Kg s.c. plus MIP-1α 5 μg I.V., 11 hours after rhu G-CSF or saline, 1 hour prior to assessing the blood
Method: Groups of mice were randomized to receive control diluent (saline) or G-CSF at a dose of 2.5 μg per mouse, twice a day, for two days via s.c. injection. […] One hour later, the mice were sacrificed and the number of progenitor cells per mL of blood were measured.

[5] = system: granulocyte macrophage (CFU-GM), erythroid (BFU-E), and multipotential (CFU-GEMM) progenitor cells; conditions: mice; for Absolute Number Progenitors Per ML Blood, Methylcellulose Culture, BFU-E / Absolute Number Progenitors Per ML Blood, Methylcellulose Culture, CFU-GEMM / Absolute Number Progenitors Per ML Blood, Methylcellulose Culture, CFU-GM: 1 hour post administration; for Absolute Progenitors Per ML Blood, Methylcellulose Culture, BFU-E / Absolute Progenitors Per ML Blood, Methylcellulose Culture, CFU-GEMM / Absolute Progenitors Per ML Blood, Methylcellulose Culture, CFU-GM: single s.c. injection of 5 mg/Kg
Method: Progenitors were stimulated to form colonies in vitro with the combination of 1U/ml rhu Epo, 50 ng/ml rhu SLF, 5% Vol/Vol pokeweed mitogen mouse spleen cell conditioned medium (PWMSCM), and 0.1 mM hemin. Plates were scored 7 days after incubation.

[6] = system: white blood cells; conditions: single s.c. 80 μg/kg
Method: (§3) Five healthy human volunteers having initial white blood cell counts of 4,500-7,500 cells/mm^3 were used in the study. […] Blood samples were obtained via catheter prior to the dose, and at various times up to 24 hours after dosing.
(§4) The blood samples were evaluated for total white blood cells, CD34 positive progenitor cells (via FACS analysis) as a percentage of total white blood cells, as well as the absolute numbers per mL and cycling status of granulocyte macrophage (CFU-GM), erythroid (BFU-E), and multipotential (CFU-GEMM) progenitor cells.

[7] = system: CD34 positive progenitor cells; conditions: human volunteers; single s.c. 80 μg/kg
Method: as §3, §4

[8] = ischemic hind limb, 5 mg/kg intraperitoneally on days 0 and 2
[9] = single s.c. injection 2.5 mg/kg

For `c1cc(CN2CCCNCCNCCCNCC2)ccc1CN1CCCNCCNCCCNCC1` [AMD3100, 1,1′-[1,4-phenylene-bis(methylene)]-bis-1,4,8,11-tetraazacyclotetradecane], the “time after injection of maximal fold increases in circulating levels of progenitor cells” value [1] was 6 h, the “agar culture CFU-GM, % CHG” value ([2]; T = 1 hour) was 180.8% and the “mean fold change vs T=0, agar culture CFU-GM, MEAN” value (“mean fold change” for short) ([2]; T = 1 hour) was 2.81. The “agar culture CFU-GM, % CHG” value ([2]; T = 3 hours) was 754.1%, the “mean fold change” value ([2]; T = 3 hours) was 8.54 and the “agar culture CFU-GM, % CHG” value ([2]; T = 6 hours) was 1692.8%. For the same molecule, the “mean fold change” value ([2]; T = 6 hours) was 17.93, the “agar culture CFU-GM, % CHG” value ([2]; T = 9 hours) was 924.9% and the “mean fold change” value ([2]; T = 9 hours) was 10.25. For the same molecule, the “agar culture CFU-GM, % CHG” value ([2]; T = 24 hours) was 108.3%, the “mean fold change” value ([2]; T = 24 hours) was 2.08 and the “time at which drug induced improvement was observed” value [3, 8] was “two”. For the same molecule, the “time by which blood flow had reached its maximum” value [3, 8] was “seven”, the “blood flow maintained, mean % of the initial flow (plateau)” value ([3]; ischemic hind limb, 5 mg/kg intraperitoneally on the day of and two days after surgery, mean flow d8-d24) was 74.6±2.8% and the “overall effect of systemic therapy on blood flow restoration” value ([3]; ischemic limb, systemic (intraperitoneal) treatment) was “accelerated blood flow restoration, but did not increase it”. The “mobilization of progenitor cells in combination with mu MIP-1α” value [4] was “additive to greater than additive”, the “Fold Change Compared to Time 0, Progenitors, Methylcellulose Culture, BFU-E” value ([5]; Time 2′) was 2.07 and the “Fold Change Compared to Time 0, Progenitors, Methylcellulose Culture, CFU-GEMM” value ([5]; Time 2′) was 1.85. The “Fold Change Compared to Time 0, Progenitors, Methylcellulose Culture, GM” value (shortened to “Fold Change Compared to Time 0, Progenitors … GM”) ([5]; Time 2′) was 2.86, the “Fold Change Compared to Time 0, Progenitors, Methylcellulose Culture, BFU-E” value ([5]; Time 15″) was 2.72 and the “Fold Change Compared to Time 0, Progenitors, Methylcellulose Culture, CFU-GEMM” value ([5]; Time 15″) was 3.51. The “Fold Change Compared to Time 0, Progenitors … GM” value ([5]; Time 15″) was 2.73, the “Fold Change Compared to Time 0, Progenitors, Methylcellulose Culture, BFU-E” value ([5]; Time 30″) was 4.24 and the “Fold Change Compared to Time 0, Progenitors, Methylcellulose Culture, CFU-GEMM” value ([5]; Time 30″) was 4.41. For the same molecule, the “Fold Change Compared to Time 0, Progenitors … GM” value ([5]; Time 30″) was 6.23, the “Absolute Number Progenitors Per ML Blood, Methylcellulose Culture, BFU-E” value (from here on “Absolute Number Progenitors Per ML Blood … BFU-E”) ([5]; single s.c. injection 1 mg/kg) was 62 Per ML Blood and the “Absolute Number Progenitors Per ML Blood, Methylcellulose Culture, CFU-GEMM” value ([5]; single s.c. injection 1 mg/kg) was 27.1 Per ML Blood. The “Absolute Number Progenitors Per ML Blood, Methylcellulose Culture, CFU-GM” value ([5]; single s.c. injection 1 mg/kg) was 424 Per ML Blood, the “Absolute Number Progenitors Per ML Blood … BFU-E” value [5, 9] was 98.9 Per ML Blood and the “Absolute Number Progenitors Per ML Blood, Methylcellulose Culture, CFU-GEMM” value [5, 9] was 70.6 Per ML Blood. The “Absolute Number Progenitors Per ML Blood, Methylcellulose Culture, CFU-GM” value [5, 9] was 687.6 Per ML Blood, the “Absolute Number Progenitors Per ML Blood … BFU-E” value ([5]; single s.c. injection 5 mg/kg) was 92.8 Per ML Blood and the “Absolute Number Progenitors Per ML Blood, Methylcellulose Culture, CFU-GEMM” value ([5]; single s.c. injection 5 mg/kg) was 69.5 Per ML Blood. The “Absolute Number Progenitors Per ML Blood, Methylcellulose Culture, CFU-GM” value ([5]; single s.c. injection 5 mg/kg) was 608.4 Per ML Blood, the “Absolute Number Progenitors Per ML Blood … BFU-E” value ([5]; single s.c. injection 10 mg/kg) was 120.5 Per ML Blood and the “Absolute Number Progenitors Per ML Blood, Methylcellulose Culture, CFU-GEMM” value ([5]; single s.c. injection 10 mg/kg) was 79.8 Per ML Blood. For the same molecule, the “Absolute Number Progenitors Per ML Blood, Methylcellulose Culture, CFU-GM” value ([5]; single s.c. injection 10 mg/kg) was 825.6 Per ML Blood, the “Absolute Progenitors Per ML Blood, Methylcellulose Culture, BFU-E” value (“Absolute Progenitors Per ML Blood … BFU-E” below) ([5]; 15″) was 134.5 Per ML Blood and the “Absolute Progenitors Per ML Blood, Methylcellulose Culture, CFU-GEMM” value (“Absolute Progenitors Per ML Blood … CFU-GEMM” for short) ([5]; 15″) was 90.4 Per ML Blood. The “Absolute Progenitors Per ML Blood, Methylcellulose Culture, CFU-GM” value (“Absolute Progenitors Per ML Blood … CFU-GM” for short) ([5]; 15″) was 791.6 Per ML Blood, the “Absolute Progenitors Per ML Blood … BFU-E” value ([5]; 30″) was 209.3 Per ML Blood and the “Absolute Progenitors Per ML Blood … CFU-GEMM” value ([5]; 30″) was 113.5 Per ML Blood. For the same molecule, the “Absolute Progenitors Per ML Blood … CFU-GM” value ([5]; 30″) was 1805.5 Per ML Blood, the “Absolute Progenitors Per ML Blood … BFU-E” value ([5]; 120″) was 102.3 Per ML Blood and the “Absolute Progenitors Per ML Blood … CFU-GEMM” value ([5]; 120″) was 47.6 Per ML Blood. The “Absolute Progenitors Per ML Blood … CFU-GM” value ([5]; 120″) was 528.7 Per ML Blood, the “time post-administration at which elevation of the white blood cell count maximized” value ([6]; human volunteers) was 6 h and the “mobilization of white blood cells in individual volunteers” value ([6]; 2 Hr, volunteers P1-P5) was 12.4 × 10^3 WBC's and 21.4 × 10^3 WBC's and 13.5 × 10^3 WBC's. For the same molecule, the “time post-administration at which elevation of CD34 positive progenitor cells maximized” value [7] was 6 h.
